From patent US4698306A, “Process for producing peroxidase” (Takara Shuzo Co., Ltd., priority 1984, dated 1987) come the findings set out here.

For assay [1], the target named is T1, peroxidase (Coprinopsis cinerea, UniProt P28314).
T1 sequence (P28314 21-363): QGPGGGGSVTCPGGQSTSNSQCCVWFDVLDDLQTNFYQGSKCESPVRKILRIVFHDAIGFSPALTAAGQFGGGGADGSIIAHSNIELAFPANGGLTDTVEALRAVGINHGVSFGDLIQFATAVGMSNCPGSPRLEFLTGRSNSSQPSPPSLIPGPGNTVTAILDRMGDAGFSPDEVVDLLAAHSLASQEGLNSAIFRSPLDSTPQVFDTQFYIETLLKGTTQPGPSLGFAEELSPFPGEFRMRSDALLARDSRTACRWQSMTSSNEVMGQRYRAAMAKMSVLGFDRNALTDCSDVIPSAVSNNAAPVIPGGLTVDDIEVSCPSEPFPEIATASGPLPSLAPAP
Description: Effects of inhibitors, metal ions and metal chelating agents on peroxidase activity. The class given is biochemical, Coprinus macrorhizus K-1330. The note with it: for Relative activity: peroxidase, 1000 µM; for Relative activity / activity at 1000 µM: 1 min; for activity at 1000 µM: read-out: Relative activity.

The target in assay [2] is T1, peroxidase. Description: Specificity for hydrogen donors prepared by combining 4-AA with various compounds. The conditions noted are these: hydrogen donor combined with 4-AA, phenol = 100. The class given is biochemical, Coprinus macrorhizus K-1330.
For assay [3], the target named is T1, peroxidase. Kind of assay: Specificity for hydrogen donors prepared by combining MBTH with dimethylaniline, diethylaniline or EHMT. The class given is biochemical, Coprinus macrorhizus K-1330. The note with it: hydrogen donor combined with MBTH; measured at 590 nm; 4-AA/phenol = 100.
The test system of assay [4] is Coprinus macrorhizus K-1330 (FERM BP-648). Kind of assay: Effect of iron salts on the production of peroxidase. The class given is cell-based. The note with it: culture filtrate, 26° C., 5 to 10 days.
Setting [5] is: additive 1 mM, no addition = 100.

Where two headings read alike, the source gives them in different places.

As for `[Cl-].[Cl-].[Zn+2]` [ZnCl2], the Relative activity in assay [1] was found to be 85%.

With `O=C(O)CI` [Iodoacetic acid], in assay [1], the activity at 1000 µM was 100%.

As for `CCN(CC)c1ccccc1` [Diethylaniline], the Relative activity in assay [2] (measured at 550 nm) and in assay [3] was 49% each time.

Take `Oc1c(Cl)cc(Cl)cc1Cl` [2,4,6-Trichlorophenol]: the Relative activity in assay [2] (measured at 520 nm) was found to be 96%.

Take `O=S(=O)(F)Cc1ccccc1` [PMSF, Phenylmethylsulfonyl fluoride]: the Relative activity in assay [1] was found to be 98%.

`[Cl][Sn][Cl]` [SnCl2]: the Relative activity in assay [1] came out at 92%.

In the case of `Oc1ccc(O)cc1` [Hydroquinone], the Relative activity in assay [2] (measured at 500 nm) worked out at 10%.

As to `c1cnc2c(c1)ccc1cccnc12` [o-Phenanthroline], the activity at 1000 µM in assay [1] (setting [5]) was determined as 88%.

Consider `c1ccc(-c2ccccn2)nc1` [α,α'-Dipyridyl], for which, in assay [1], the activity at 1000 µM was determined as 103%.

Consider `N[C@@H](CS)C(=O)O` [L-cysteine], for which the activity at 1000 µM in assay [1] (setting [5]) was 105%.

As to `Oc1ccccc1O` [Pyrocatechol], the Relative activity in assay [2] (measured at 500 nm) was 58%.

For the compound `[F-].[Na+]` [Sodium fluoride], the Relative activity in assay [1] is recorded as 103%.

Regarding `O.O.O.O.O.O.O.O=S(=O)([O-])[O-].[Fe+2]` [FeSO4.7H2 O], the “Peroxidase activity (maximum activity)” value in assay [4] (0.04 % FeSO4.7H2O added to medium) amounted to 28.0 unit/ml; in assay [4] (0.08 % FeSO4.7H2O added to medium), 46.4 unit/ml; in assay [4] (0.12 % FeSO4.7H2O added to medium) it was 75.5 unit/ml; in assay [4] (0.16 % FeSO4.7H2O added to medium), 80.2 unit/ml; in assay [4] (0.20 % FeSO4.7H2O added to medium), 66.0 unit/ml; in assay [4] (0.24 % FeSO4.7H2O added to medium), 36.8 unit/ml. In assay [4] (0.32 % FeSO4.7H2O added to medium), the “Peroxidase activity (maximum activity)” value came out at 17.0 unit/ml.

For the compound `Oc1ccc(Br)cc1Br` [2,4-Dibromophenol], the Relative activity in assay [2] (measured at 520 nm) was determined as 47%.

Turning to `Oc1ccc(Cl)cc1Cl` [2,4-Dichlorophenol], the Relative activity in assay [2] (measured at 520 nm) is reported as 115%.

On to `Oc1cccc2ccccc12` [α-Naphthol], for which the Relative activity in assay [2] (measured at 500 nm) was 18%.

`[Cl][Fe]([Cl])[Cl]` [FeCl3]: in assay [1], the Relative activity was found to be 107%.

In the case of `O=S(=O)([O-])[O-].[Ni+2]` [NiSO4], in assay [1], the Relative activity is listed as 92%.

Turning to `Oc1cccc(O)c1` [Resorcinol], the Relative activity in assay [2] (measured at 500 nm) is recorded as 10%.

For `CCN(CCO)c1cccc(C)c1` [EHMT, N-ethyl-N-hydroxyethyl-m-toluidine], the results for the Relative activity in assay [2] (measured at 550 nm) and in assay [3] were 62% and 41%, respectively.

On to `O[C@H](CS)[C@H](O)CS` (racemic) [Dithiothreitol], for which the activity at 1000 µM in assay [1] (setting [5]) was found to be 95%.

In the case of `O=C(O)CN(CCN(CC(=O)O)CC(=O)O)CC(=O)O` [EDTA], the activity at 1000 µM in assay [1] was 97%.

With `[Cl-].[Cl-].[Co+2]` [CoCl2], in assay [1], the Relative activity was 98%.

`[Cl][Mn][Cl]` [MnCl2]: in assay [1], the Relative activity was found to be 86%.

Take `[N-]=[N+]=[N-]` [Sodium azide]: in assay [1], the “Inhibition of the enzyme” value was “inhibited”.

For `[Ba+2].[Cl-].[Cl-]` [BaCl2], the Relative activity in assay [1] is listed as 96%.

As for `CN(C)c1ccccc1` [Dimethylaniline], the values for the Relative activity in assay [2] (measured at 550 nm) and in assay [3] were 21% and 50%, respectively.

In the case of `Oc1ccccc1` [Phenol], the Relative activity in assay [2] (measured at 500 nm) is 100%.

With `NC(N)=S` [Thiourea], in assay [1], the “Inhibition of the enzyme” value was “inhibited” and the activity at 1000 µM turned out to be 57%.

Regarding `[Cl][Hg][Cl]` [HgCl2], in assay [1], the “Inhibition of the enzyme” value was “inhibited” and the Relative activity is recorded as 6%.

`O=C(O)c1cc[c]([Hg][Cl])cc1` [PCMB, p-Chloromercuribenzoic acid]: in assay [1], the Relative activity worked out at 98%.

On to `Oc1c(Cl)cccc1Cl` [2,6-Dichlorophenol], for which the Relative activity in assay [2] (measured at 520 nm) is reported as 154%.

Regarding `O=S(=O)([O-])[O-].[Cu+2]` [CuSO4], the Relative activity in assay [1] was 105%.
